This note sets out measurements from paper PMC12306498, “Microwave-assisted synthesis of tubulin assembly inhibitors as anticancer agents by aryl ring reversal and conjunctive approach” (RSC Medicinal Chemistry, 2025).

Values joined by “and” are separate entries in the source; they are usually repeats but may differ in a detail not shown here. Equal entries are not always repeated. “Also recorded” adds a separate entry of the source. Where two headings read alike, the source gives them in different places.

Assay [1] relates to BX-PC3 pancreatic cancer cells. Briefly: BX-PC3 cell viability (MTS assay). Conditions: Homo sapiens, BXPC-3; inhibition of growth of BX-PC3 pancreatic cancer cells; incubation time 48 h. In kind it is cell-based. As to the method:
(§1) MCF-7 breast carcinoma cells were obtained from the National Cancer Institute drug screening laboratory. HCT116 cell line was grown in Dulbecco's modified Eagle's medium (DMEM). BX-PC3 cells were grown in RPMI-1640 medium. Both media were supplemented with 10% fetal bovine serum (FBS), 100 U mL^−1 penicillin, […] streptomycin and 1% of L-glutamine. Cell lines were cultured at 37 °C in 5% CO2 and 95% air in a humidified incubator. T-ALL (Jurkat) cells were grown in RPMI-1640 medium. Both media were supplemented with 115 units per mL of penicillin G, 115 μg mL^−1 of streptomycin, and 10% fetal bovine serum (FBS, all purchased from Invitrogen, Milan, Italy). Cancer cells were seeded in tissue treated, flat bottom, 384-well plates (Corning, Corning, NY, USA) in 24 μL of complete medium per well, using a Microlab STAR 96-CORE liquid handling system (Hamilton Bonaduz, Bonaduz, Switzerland).
(§2) Cell viability of HCT116 and BX-PC3 cells was determined using the 3-(4,5-dimethylthiazol-2-yl)-5-(3-carboxymethoxyphenyl)-2-(4-sulfophenyl)-2H-tetrazolium (MTS) colorimetric assay.[38] […] After 48 h of growth, the MTS reagent was added to each well and absorbance at […] was measured by a microplate reader (Victor, PerkinElmer). The results were expressed as % relative to control cells (100%) and IC50 values were calculated using GraphPad Prism statistics software by nonlinear regression analysis.
On the technique in general: Formazan colour is commonly taken as a measure of viable cells.

In the next assay the test system is BX-PC3 spheroids. In words: 3D culture (spheroids) from BX-PC3 cells. In kind it is cell-based. To be noted: 320 nM for 48 h. As to the method: (§3) 3D culturing of BX-PC3 and HCT116 cells were performed seeding 500 cells/well into ultra-low attachment 96-well round-bottomed plates and cultured in supplemented RPMI and DMEM, respectively, at 37 °C under […] atmosphere for 7 days, until spheroids were formed. To evaluate the effect of compound 4 on spheroid growth, a range of doses (10–320 nM) was added to the cell suspension after spheroid formation, and the culture was maintained for 48 h. Spheroid diameters wwere measured using the ZEISS ZEN imaging software from the pictures obtained with an inverted optical microscope (Axio Vert A1, Zeiss, Oberkochen, Germany).

Assay [2] concerns tubulin. In words: Inhibition of [3H]colchicine binding to tubulin. To be noted: for Colch. binding (% ± SD): inhibition of [3H]colchicine binding, tubulin, [3H]colchicine, inhibitor at 1, 5 and 5 μM. How it is done: The reaction mixtures contained 1.0 μM tubulin, 5.0 μM [^3H]colchicine, and 5.0 or 1.0 μM inhibitor, as indicated, and were incubated for 10 min at 37 °C. Complete details were described previously.[36]

Assay [3] concerns Jurkat T lymphocyte cancer cells. Briefly: Jurkat (T-ALL) cell viability (resazurin assay). Type of assay: cell-based. To be noted: Homo sapiens, 96 h, inhibition of growth of Jurkat T lymphocyte cancer cells, incubation time 96 h. How it is done:
as §1, with “Cancer cells were seeded in tissue treated, flat bottom, 384-well plates (Corning, Corning, NY, USA) in 24 μL of complete medium per well, using a Microlab STAR 96-CORE liquid handling system (Hamilton Bonaduz, Bonaduz, Switzerland).” left out
For T-ALL, drug stock solutions were prepared for each compound by dissolving them at 10 mM in DMSO. […] The fluorescence signal was measured at 590 nm using a Spark 10 M spectrophotometer (Tecan Group Ltd., Mannedorf, Switzerland). Only plates with Z′ > 0.5 were further analyzed for the drug screening. Raw data were normalized according to the following equation: cell viability (%) = (x − POS)/(NEG − POS) × 100, where x is the relative fluorescence units (RFU) collected from each single well, NEG is the mean of intraplate negative controls (DMSO, corresponding to 100% cell viability), and POS is the mean of intraplate positive controls (benzethonium chloride 75 μM, equal to 0% cell viability). […]
(In general: Resazurin is reduced to fluorescent resorufin, in cell work by metabolically active cells.)

Assay [4] deals with MCF-7 human breast carcinoma cells. In words: MCF-7 cell growth inhibition. In kind it is cell-based. To be noted: Homo sapiens, read-out: MCF-7 IC50 ± SD.
In assay [5] the test system is tubulin. In words: Inhibition of tubulin polymerization (tubulin assembly, turbidity at 350 nm). Type of assay: biochemical. Conditions: tubulin at 10 μM, read-out: Tubulin IC50 ± SD. How it is done:
The assembly reaction mixtures contained 0.8 M monosodium glutamate (pH 6.6 with HCl in a 2 M stock solution), 10 μM tubulin, 4% (v/v) DMSO, and varying concentrations of drug. Following a 15 min preincubation at 30 °C, samples were chilled on ice, GTP to 0.4 mM was added, and turbidity development was followed at 350 nm in a temperature-controlled recording spectrophotometer for 20 min at 30 °C. The extent of reaction was measured. Full experimental details were previously described.[35]

The subject of assay [6] is HCT116 colon cancer cells. In words: HCT116 cell viability (MTS assay). In kind it is cell-based. Conditions: inhibition of growth of HCT116 colon cancer cells, incubation time 48 h. How it is done: as §1, §2
The next assay deals with HCT116 spheroids. In words: 3D culture (spheroids) from HCT116 cells. Type of assay: cell-based. To be noted: 160 nM for 48 h. As to the method: as §3
[7] abbreviates: MCF7, 96 h, cells grown for 96 h.

Take `COc1ccc(-c2cn(-c3ccccn3)cc2C(=O)c2cc(OC)c(OC)c(OC)c2)cc1` [Compound 4, (4-(4-Methoxyphenyl)-1-(pyridin-2-yl)-1H-pyrrol-3-yl)(3,4,5-trimethoxyphenyl)methanone]: the IC50 (usually the concentration at which inhibition is half-maximal) came out at 17 nM in assay [1]; 41 nM in assay [3]; 9.6 ± 0.8 nM in assay [4] (MCF7, cells grown for 96 h); 190 ± 6 nM in the assay with tubulin [5]; 18 nM in assay [6] (Homo sapiens, HCT-116, 48 h); 28 nM in assay [6]. Further, the “Spheroid diameter and morphology” value in the assay on BX-PC3 spheroids and in the assay on HCT116 spheroids was “altered the morphology of treated spheroids; also recorded: significant reduction of spheroid diameter” in each case. Moreover, the “Colch. binding (% ± SD)” value in the assay on tubulin [2] is 78% and 78 ± 1%. In addition, the “Inhibition of [3H]colchicine binding” value in the assay with tubulin [2] (inhibitor at 1 μM, tubulin 1 μM, [3H]colchicine 5 μM) amounted to 76%.

As to `COc1cc(C(=O)c2cn(-c3ncccn3)c3ccc(C#N)cc23)cc(OC)c1OC` [Compound 29, 1-(Pyrimidin-2-yl)-3-(3,4,5-trimethoxybenzoyl)-1H-indole-5-carbonitrile], the “Colch. binding (% ± SD)” value with tubulin [2] came out at 42 ± 5%. For the same molecule, the values for the IC50 (in assay [4] (setting [7]); in the assay with tubulin [5]) were 230 ± 7 nM and 1300 ± 70 nM, respectively.

As for `COc1ccc2c(c1)c(C(=O)c1cc(OC)c(OC)c(OC)c1)cn2-c1ncccn1` [Compound 30, (5-Methoxy-1-(pyrimidin-2-yl)-1H-indol-3-yl)(3,4,5-trimethoxyphenyl)methanone], the “Colch. binding (% ± SD)” value in the assay on tubulin [2] is 71% and 71 ± 5%. The results for the IC50 (in assay [4] (setting [7]); with tubulin [5]) were 220 ± 60 nM and 380 ± 40 nM, respectively.
